Consider one molecule from US8741854B2, “Compositions and methods for feeding poultry” (Bioenergy, Inc., priority 2009, dated 2014).

The test system of the test is male chicks of a commercial breed, "Cobb 500". The experiment in a line: D-ribose supplementation of broiler chicks raised on a challenged rapid growth regimen. The following applies: D-ribose in drinking water, about 200 mg/kg body weight/day. It counts as in vivo, chicken (broiler chicks).

For the molecule `O=C[C@H](O)[C@H](O)[C@H](O)CO` [D-ribose], the observed cardiomyopathic incidences (days 0 to 43, challenged environment, approximately 5200 feet elevation, control 27.6%) was found to be 15.1%. Besides, the “average weight and feed conversion versus control” value (birds weighed days 35 and 43, FIG. 1) was “slightly better in the control group, but the differences were not statistically significant”.
